The subject of data set [1] is MIA PaCa-2. Nature of the data set: Cytotoxicity against human MIA PaCa-2 cells harboring KRAS G12C mutant assessed as cell growth inhibition incubated for 24 hrs by MTT assay. The class given is functional, cell-based. The following applies: MIA PaCa-2, 24 h. A general note: Formazan colour is commonly taken as a measure of viable cells.
In another data set the test system is PANC-1. Nature of the data set: Cytotoxicity against human PANC-1 cells harboring KRAS G12D mutant assessed as cell growth inhibition incubated for 24 hrs by MTT assay. The class given is functional, cell-based. The following applies: PANC-1, 24 h.
Data set [2] in a line: Cytotoxicity against human PANC-1 cells […] assessed as cell growth inhibition incubated for 24 hrs by MTT assay. The data set is classed as functional, cell-based. The conditions noted are these: PANC-1, 24 h.
Another data set relates to NCM460. Nature of the data set: Cytotoxicity against human NCM460 cells harboring wild-type KRAS assessed as cell growth inhibition incubated for 24 hrs by MTT assay. The data set is classed as functional, cell-based. The conditions noted are these: NCM460, 24 h.
In data set [3] the target is GTPase KRas (Homo sapiens) (UniProt P01116). Nature of the data set: Inhibition of KRAS in human MIA PaCa-2 cells at >5 uM incubated for 24 hrs by Western blot analysis. The data set is classed as cell-based. (In general: Immunoblotting shows a protein as a band on a membrane.)
Chain of GTPase KRas (Homo sapiens) (P01116 whole entry, looked up): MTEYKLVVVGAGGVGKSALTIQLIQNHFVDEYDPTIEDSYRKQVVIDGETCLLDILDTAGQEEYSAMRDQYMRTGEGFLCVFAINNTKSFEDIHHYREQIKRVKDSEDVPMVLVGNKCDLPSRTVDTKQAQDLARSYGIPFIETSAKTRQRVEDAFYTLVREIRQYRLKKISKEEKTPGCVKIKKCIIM
The target is the same in data set [4]. Nature of the data set: Inhibition of KRAS in human PANC-1 cells at >5 uM incubated for 24 hrs by Western blot analysis. The data set is classed as cell-based.
The test system of a further data set is HPAF-II. Description: Cytotoxicity against human HPAF-II cells harboring KRAS G12D mutant assessed as cell growth inhibition incubated for 24 hrs by MTT assay. The class given is functional, cell-based.
The test system of a further data set is SW-620. Description: Cytotoxicity against human SW620 cells harboring KRAS G12V mutant assessed as cell growth inhibition incubated for 24 hrs by MTT assay. The data set is classed as functional, cell-based. The following applies: SW-620, 24 h.
The test system of a further data set is HCT-116. Description: Cytotoxicity against human HCT-116 cells harboring KRAS G13D mutant assessed as cell growth inhibition incubated for 24 hrs by MTT assay. The conditions noted are these: HCT-116, 24 h. The class given is functional, cell-based.
The test system of another data set is NCI-H358. Description: Cytotoxicity against human NCI-H358 cells harboring KRAS G12C mutant assessed as cell growth inhibition incubated for 24 hrs by MTT assay. The data set is classed as functional, cell-based. The following applies: NCI-H358, 24 h.
The subject of the next data set is U-87 MG. Nature of the data set: Cytotoxicity against human U-87 MG cells harboring wild-type KRAS assessed as cell growth inhibition incubated for 24 hrs by MTT assay. The class given is functional, cell-based, U-87MG ATCC.
The nature of data set [5]: Cytotoxicity against human LX2 cells harboring wild-type KRAS assessed as cell growth inhibition incubated for 24 hrs by MTT assay. The data set is classed as toxicity, cell-based, LX-2.
A short description of data set [6]: Cytotoxicity against human HFL1 cells harboring wild-type KRAS assessed as cell growth inhibition incubated for 24 hrs by MTT assay. The class given is toxicity, cell-based.
In data set [7] the target is GTPase KRas (Homo sapiens) (UniProt P01116). Nature of the data set: Inhibition of KRAS in human MIA PaCa-2 cells at 2.5 uM incubated for 24 hrs by Western blot analysis. The class given is cell-based.
Data set [8] shares this target. Description: Inhibition of KRAS in human PANC-1 cells at 2.5 uM incubated for 24 hrs by Western blot analysis. The class given is cell-based.
Data set [9] concerns MIA PaCa-2. Nature of the data set: In vivo inhibition of KRAS in human MIA PaCa-2 cells xenografted in BALB/C-nu/nu mouse model at 2.5 mg/kg,ip everyday for 18 days by IHC analysis. The data set is classed as functional, organism-based. The conditions noted are these: time 18.0 day. A general note: In xenograft studies the graft and the host belong to different species.

This is an account of results in ChEMBL document CHEMBL5537197, “Discovery of Novel Coumarin-quinolinium Derivatives as Pan-KRAS Translation Inhibitors by Targeting 5'-UTR RNA G-Quadruplexes” (J Med Chem, 2024).

Activity calls are given as the source filed them. The rule behind the calls is not given here. Bounds are passed on as bounds.

The IC50 is the midpoint of a concentration-inhibition curve. In the case of `CCN(CC)c1ccc2cc(/C=C/c3ccc4cc(F)c(N5CCN(C)CC5)cc4[n+]3C)c(=O)oc2c1`, the IC50 in the data set with MIA PaCa-2 [1] is 10.8 µM; with PANC-1 it was 14.7 µM; in data set [2], above 40 µM; with NCM460 it was above 40 µM; with HPAF-II, 32.1 µM; in the data set with SW-620, 18.6 µM. The results for the IC50 in the data set with HCT-116, in the data set with NCI-H358 and in the data set with U-87 MG were 19.1 µM, 11.9 µM and above 40 µM, respectively. Also, the inhibition result in data set [3] and in data set [4] was “Active” each time. Further, the IC50 at 24 h in [5] and in data set [6] was above 40 µM each time.
On to `CCCCN(CCCC)CCCn1cc(CNc2cc3c(cc2F)c(N2CCN(C)CC2)cc(/C=C/c2cc4ccc(N(CC)CC)cc4oc2=O)[n+]3C)nn1`, for which the IC50 was 5.9 µM with MIA PaCa-2 [1], 8.8 µM with PANC-1, above 40 µM in [2] and above 40 µM in the data set with NCM460. In addition, the inhibition entry in data set [7] and in data set [8] was “Active” each time.
Take `CCN(CC)CCCNc1cc2c(ccc(/C=C/c3cc4ccc(N(CC)CC)cc4oc3=O)[n+]2C)cc1F`: the IC50 with MIA PaCa-2 [1] was 7.7 µM; with PANC-1 it was 7.2 µM; in data set [2], above 40 µM; in the data set on NCM460, above 40 µM. The inhibition entry in [7] and in [8] was “Active” each time.
With `CCN(CC)c1ccc2cc(/C=C/c3cc(N4CCCN(C)CC4)c4cc(F)c(N5CCCN(C)CC5)cc4[n+]3C)c(=O)oc2c1`, the IC50 in the data set on MIA PaCa-2 [1] is 10 µM; with PANC-1, 11.5 µM; in [2], above 40 µM; in the data set with NCM460, above 40 µM. Moreover, the inhibition entry in data set [7] and in data set [8] was “Active” each time.
Turning to `CCN(CC)c1ccc2cc(/C=C/c3ccc4cc(F)c(NCCCN5CCCC5)cc4[n+]3C)c(=O)oc2c1`, the IC50 in the data set on MIA PaCa-2 [1] was 7.8 µM; in the data set with PANC-1 it was 11.8 µM; in [2], above 40 µM; in the data set on NCM460, above 40 µM. Also, the inhibition entry in [7] and in data set [8] was “Active” throughout.
Turning to `CCN(CC)c1ccc2cc(/C=C/c3ccc4cc(F)c(NCCN5CCCCC5)cc4[n+]3C)c(=O)oc2c1`, the IC50 with MIA PaCa-2 [1] is 43 µM; in the data set with PANC-1, 5.8 µM; in data set [2], above 40 µM; with NCM460 it was above 40 µM. Further, the inhibition entry in data set [7] and in data set [8] was “Active” each time.
`CCN(CC)c1ccc2cc(/C=C/c3ccc4cc(F)c(NCCCN(C)C)cc4[n+]3C)c(=O)oc2c1`: the IC50 with MIA PaCa-2 [1] is 8.6 µM; with PANC-1 it was 9 µM; in data set [2] it was above 40 µM; in the data set on NCM460, above 40 µM. The inhibition entry in [7] and in data set [8] was “Active” each time.
Take `C=CC(=O)N1CCN(c2nc(=O)n(-c3c(C)ccnc3C(C)C)c3nc(-c4c(O)cccc4F)c(F)cc23)[C@@H](C)C1` [SOTORASIB]: the IC50 (in the data set with MIA PaCa-2 [1]; in the data set with PANC-1; in data set [2]; with NCM460) was above 40 µM in each case. Also, in the data set with MIA PaCa-2 [9], the result was inactive.
Turning to `CCN(CC)c1ccc2cc(/C=C/c3ccc4cc(F)c(N5CCN(Cc6cn(CCCN7CCCCC7)nn6)CC5)cc4[n+]3C)c(=O)oc2c1`, the IC50 in the data set on MIA PaCa-2 [1] is 26.8 µM; with PANC-1, above 40 µM; in data set [2] it was above 40 µM; in the data set on NCM460 it was above 40 µM.
Turning to `CCN(CC)c1ccc2cc(/C=C/c3ccc4cc(F)c(NCCc5nc6ccccc6[nH]5)cc4[n+]3C)c(=O)oc2c1`, the IC50 was 4 µM in the data set on MIA PaCa-2 [1], 19.2 µM in the data set with PANC-1, above 40 µM in data set [2] and above 40 µM with NCM460.
For the compound `CCN(CC)c1ccc2cc(/C=C/c3ccc4cc(F)c(N5CCN(Cc6cn(CCCN7CCOCC7)nn6)CC5)cc4[n+]3C)c(=O)oc2c1`, the IC50 in the data set on MIA PaCa-2 [1] is 23.4 µM; in the data set on PANC-1, above 40 µM; in data set [2], above 40 µM; in the data set with NCM460 it was above 40 µM.
In the case of `CCN(CC)c1ccc2cc(/C=C/c3cc(N4CCN(C)CC4)c4cc(F)c(NCc5cn(CCCN6CCCC6)nn5)cc4[n+]3C)c(=O)oc2c1`, the IC50 (with MIA PaCa-2 [1]; in the data set with PANC-1; in data set [2]; in the data set on NCM460) was above 40 µM in each case.
With `CCN(CC)c1ccc2cc(/C=C/c3ccc4cc(F)c(N5CCN(Cc6cn(CCCO)nn6)CC5)cc4[n+]3C)c(=O)oc2c1`, the IC50 (in the data set with MIA PaCa-2 [1]; in the data set on PANC-1; in data set [2]; in the data set on NCM460) was above 40 µM in each case.
Regarding `CCN(CC)c1ccc2cc(/C=C/c3ccc4cc(F)c(N5CCN(Cc6cn(CCC(=O)O)nn6)CC5)cc4[n+]3C)c(=O)oc2c1`, the IC50 was 12.6 µM with MIA PaCa-2 [1], above 40 µM with PANC-1, above 40 µM in [2] and above 40 µM in the data set on NCM460.
Turning to `CCN(CC)c1ccc2cc(/C=C/c3ccc4cc(F)c(NCCCN5CCOCC5)cc4[n+]3C)c(=O)oc2c1`, the IC50 was 4.2 µM with MIA PaCa-2 [1], 6 µM with PANC-1, above 40 µM in data set [2] and above 40 µM in the data set on NCM460. For the same compound, the inhibition entry in [7] and in data set [8] was “Active” in each case.
